Laboratory results as given in US11807644B2 (PMV Pharmaceuticals, Inc., priority 2020, dated 2023).

target: T1, recombinant His-tag Y220C p53 DBD protein (Homo sapiens, UniProt P04637, Y220C); test: In vitro DNA binding activity assay (TR-FRET): binding of His-tag Y220C p53 DBD to biotin-labeled consensus DNA; format: biochemical; conditions: SC150 = concentration to increase DNA binding by […], His-tag Y220C p53 DBD, biotin-labeled consensus DNA
T1 construct: recombinant His-tag Y220C p53 DBD protein (amino acids #˜94-312)

Row | SMILES | Y220C SC150 (μM)
1 | COc1cc(S(C)(=O)=O)ccc1NCc1nc(-c2cc3c(N[C@@H]4CCN(C)C[C@@H]4F)cccc3n2CC(F)(F)F)no1 (racemic) [Compound 183B, (+/−)-N-[(3R,4S)-3-fluoro-1-methylpiperidin-4-yl]-2-(5-{[(4-methanesulfonyl-2-methoxyphenyl)amino]methyl}-1,2,4-oxadiazol-3-yl)-1-(2,2,2-trifluoroethyl)-1H-indol-4-amine] | * (* = 0 μM ≤ SC150 < 0.1 μM)
2 | CN1CC[C@@H](Nc2cccc3c2cc(-c2nnc(CNC(=O)C4CC4)s2)n3CC(F)(F)F)[C@@H](F)C1 [Compound 47B, N-{[5-(4-{[(3S,4R)-3-fluoro-1-methylpiperidin-4-yl]amino}-1-(2,2,2-trifluoroethyl)-1H-indol-2-yl)-1,3,4-thiadiazol-2-yl]methyl}cyclopropanecarboxamide] | * (* = 0 μM ≤ SC150 < 0.1 μM)
3 | O=C(NCc1nc(-c2cc3c(NC4CCOCC4)cccc3n2CC(F)(F)F)no1)C1CC1 [Compound 159B, N-[(3-{4-[(oxan-4-yl)amino]-1-(2,2,2-trifluoroethyl)-1H-indol-2-yl}-1,2,4-oxadiazol-5-yl)methyl]cyclopropanecarboxamide] | * (* = 0 μM ≤ SC150 < 0.1 μM)
4 | COCC1(c2ccc(C(=O)NCc3nc(-c4cc5c(N[C@@H]6CCNC[C@@H]6F)cccc5n4CC(F)(F)F)no3)s2)CC1 [Compound 503B, N-{[3-(4-{[(3S,4R)-3-fluoropiperidin-4-yl]amino}-1-(2,2,2-trifluoroethyl)-1H-indol-2-yl)-1,2,4-oxadiazol-5-yl]methyl)-5-[1-(methoxymethyl)cyclopropyl]thiophene-2-carboxamide] | * (* = 0 μM ≤ SC150 < 0.1 μM)
5 | COCC(C)(C)n1cc(C(=O)NCc2nc(-c3cc4c(N[C@H]5CCN(C(C)(C)C)C[C@H]5F)cccc4n3CC(F)(F)F)no2)cn1 [Compound 413B, N-{[3-(4-{[(3R,4S)-1-tert-butyl-3-fluoropiperidin-4-yl]amino}-1-(2,2,2-trifluoroethyl)-1H-indol-2-yl)-1,2,4-oxadiazol-5-yl]methyl}-1-(1-methoxy-2-methylpropan-2-yl)-1H-pyrazole-4-carboxamide] | * (* = 0 μM ≤ SC150 < 0.1 μM)
6 | CN1CCC(Nc2cccc3c2cc(-c2cc(C(N)c4ccccc4)[nH]n2)n3CC(F)(F)F)CC1 (centres unmarked) [Compound 20B, 2-{5-[amino(phenyl)methyl]-1H-pyrazol-3-yl}-N-(1-methylpiperidin-4-yl)-1-(2,2,2-trifluoroethyl)-1H-indol-4-amine] | **** (**** = 1 μM ≤ SC150 < 10 μM)
7 | CN1CC[C@@H](Nc2cccc3c2cc(-c2nc(CNC(=O)C4CC4)cs2)n3CC(F)(F)F)[C@@H](F)C1 (racemic) [Compound 89B, N-{[2-(4-{[(3S,4R)-3-fluoro-1-methylpiperidin-4-yl]amino}-1-(2,2,2-trifluoroethyl)-1H-indol-2-yl)-1,3-thiazol-4-yl]methyl}cyclopropanecarboxamide] | **** (**** = 1 μM ≤ SC150 < 10 μM)
8 | CN1CCC(Nc2cccc3c2cc(-c2nnc(CNc4cn[nH]c4)o2)n3CC(F)(F)F)CC1 [Compound 112B, N-(1-methylpiperidin-4-yl)-2-(5-{[(1H-pyrazol-4-yl)amino]methyl}-1,3,4-oxadiazol-2-yl)-1-(2,2,2-trifluoroethyl)-1H-indol-4-amine] | *** (*** = 0.5 μM ≤ SC150 < 1 μM)
9 | COC(C)(C)c1nc(C(=O)NCc2nc(-c3cc4c(N[C@@H]5CCN(C)C[C@@H]5F)cccc4n3CC(F)(F)F)no2)cs1 [Compound 530B, N-{[3-(4-{[(3S,4R)-3-fluoro-1-methylpiperidin-4-yl]amino}-1-(2,2,2-trifluoroethyl)-1H-indol-2-yl)-1,2,4-oxadiazol-5-yl]methyl}-2-(2-methoxypropan-2-yl)-1,3-thiazole-4-carboxamide] | * (* = 0 μM ≤ SC150 < 0.1 μM)
10 | CN1CCC(n2ccc(C(=O)NCc3nc(-c4cc5c(N[C@@H]6CCN(C)C[C@@H]6F)cccc5n4CC(F)(F)F)no3)c2)CC1 [Compound 363B, N-{[3-(4-{[(3S,4R)-3-fluoro-1-methylpiperidin-4-yl]amino)-1-(2,2,2-trifluoroethyl)-1H-indol-2-yl)-1,2,4-oxadiazol-5-yl]methyl)-1-(1-methylpiperidin-4-yl)-1H-pyrrole-3-carboxamide] | * (* = 0 μM ≤ SC150 < 0.1 μM)
11 | COCC(C)(C)c1cc(C(=O)NCc2nc(-c3cc4c(N[C@@H]5CCN(C)C[C@@H]5F)cccc4n3CC(F)(F)F)no2)cs1 [Compound 485B, N-{[3-(4-{1[(3S,4R)-3-fluoro-1-methylpiperidin-4-yl]amino}-1-(2,2,2-trifluoroethyl)-1H-indol-2-yl)-1,2,4-oxadiazol-5-yl]methyl}-5-(1-methoxy-2-methylpropan-2-yl)thiophene-3-carboxamide] | * (* = 0 μM ≤ SC150 < 0.1 μM)
12 | CN1CC[C@@H](Nc2cccc3c2cc(-c2noc(CNC(=O)c4ccn(C5CC(F)(F)C5)c4)n2)n3CC(F)(F)F)[C@@H](F)C1 [Compound 451B, 1-(3,3-difluorocyclobutyl)-N-{[3-(4-{[(3S,4R)-3-fluoro-1-methylpiperidin-4-yl]amino}-1-(2,2,2-trifluoroethyl)-1H-indol-2-yl)-1,2,4-oxadiazol-5-yl]methyl}-1H-pyrrole-3-carboxamide] | * (* = 0 μM ≤ SC150 < 0.1 μM)
13 | CN1CCC(Nc2cccc3c2cc(-c2nc(CNC(=O)c4ccn(C)n4)no2)n3CC(F)(F)F)CC1 [Compound 141B, 1-methyl-N-[(5-{4-[(1-methylpiperidin-4-yl)amino]-1-(2,2,2-trifluoroethyl)-1H-indol-2-yl}-1,2,4-oxadiazol-3-yl)methyl]-1H-pyrazole-3-carboxamide] | ** (** = 0.1 μM ≤ SC150 < 0.5 μM)
14 | CC(O)Cn1ccc(C(=O)NCc2nc(-c3cc4c(N[C@@H]5CCN(C)C[C@@H]5F)cccc4n3CC(F)(F)F)no2)c1 (stereo partly drawn) [Compound 244B, N-{[3-(4-{[(3S,4R)-3-fluoro-1-methylpiperidin-4-yl]amino}-1-(2,2,2-trifluoroethyl)-1H-indol-2-yl)-1,2,4-oxadiazol-5-yl]methyl}-1-(2-hydroxypropyl)-1H-pyrrole-3-carboxamide] | * (* = 0 μM ≤ SC150 < 0.1 μM)

same assay, conditions: concentration to increase DNA binding by […], incubated at either 27° C. or 29° C. for 60 min

Row | SMILES | SC150 (μM)
15 | O=S1(=O)CCC(Nc2cccc3c2cc(-c2cccc(Cl)c2)n3CC(F)(F)F)CC1 [Compound 12A, 4-{[2-(3-chlorophenyl)-1-(2,2,2-trifluoroethyl)-1H-indol-4-yl]amino}-1λ^6-thiane-1,1-dione] | ++++ (++++ = 10 μM ≤ SC150 < 35 μM)
16 | COCC(O)CN1CCC(Nc2cccc3c2cc(-c2ccc4c(C)[nH]nc4c2)n3CC(F)(F)F)CC1 (centres unmarked) [Compound 47A, 1-methoxy-3-(4-{[2-(3-methyl-2H-indazol-6-yl)-1-(2,2,2-trifluoroethyl)-1H-indol-4-yl]amino}piperidin-1-yl)propan-2-ol] | +++ (+++ = 5 μM ≤ SC150 < 10 μM)
17 | CN1CCC(Nc2cccc3c2cc(-c2ccc(C(N)c4ccccc4)cc2)n3CC(F)(F)F)CC1 (centres unmarked) [Compound 38A, 2-{4-[amino(phenyl)methyl]phenyl}-N-(1-methylpiperidin-4-yl)-1-(2,2,2-trifluoroethyl)-1H-indol-4-amine] | +++ (+++ = 5 μM ≤ SC150 < 10 μM)
